According to ChEMBL document CHEMBL5257148, “Novel Tricyclic Compounds as KRAS Inhibitors for Treating Cancer” (ACS Med Chem Lett, 2023):

Assays:
GTPase KRas [1] = target: T1, GTPase KRas (Homo sapiens, UniProt P01116, G12C); assay: Inhibition of KRAS G12C mutant (unknown origin) assessed as inhibition of SOS1 mediated nucleotide exchange incubated for 2 hrs in presence of GppNHp by fluorescence based analysis
GTPase KRas [2] = target: T1, GTPase KRas; assay: Inhibition of KRAS G12C mutant in human MIA PaCa-2 cells assessed as reduction in whole blood pERK level incubated for 4 hrs by HTRF assay; assay type: cell-based
GTPase KRas [3] = target: T1, GTPase KRas; assay: Inhibition of KRAS G12C mutant in human MIA PaCa-2 cells assessed as reduction in pERK level incubated for 4 hrs by HTRF assay; assay type: cell-based

Measured: IC50

T1 sequence (P01116 whole entry G12C): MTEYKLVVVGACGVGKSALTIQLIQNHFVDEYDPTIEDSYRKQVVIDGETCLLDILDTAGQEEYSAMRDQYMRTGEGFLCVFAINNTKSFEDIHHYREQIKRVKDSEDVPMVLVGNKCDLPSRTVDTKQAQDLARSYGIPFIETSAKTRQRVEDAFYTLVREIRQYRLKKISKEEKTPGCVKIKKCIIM

COC/C=C/C(=O)N1CC[C@H](n2nnc3c(O[C@@H](C)[C@@H]4CCCN4C)nc4c(F)c(-c5nn(C)c6ccccc56)c(C)cc4c32)C[C@H]1CC#N
≤ 50 nM: all assays above

C=C(F)C(=O)N1CC[C@H](n2nnc3c(O[C@@H](C)[C@@H]4CCCN4C)nc4c(F)c(-c5ncc(F)c6ccccc56)c(C)cc4c32)C[C@H]1CC#N
≤ 50 nM: all assays above

Cc1cc2c(nc(O[C@@H](C)[C@@H]3CCCN3C)c3nnn([C@H]4CCN(C(=O)/C=C/CF)[C@H](CC#N)C4)c32)c(F)c1-c1ccc2cnn(C)c2c1
≤ 50 nM: all assays above

COC/C=C/C(=O)N1CC[C@H](n2nnc3c(O[C@@H](C)[C@@H]4CCCN4C)nc4c(F)c(-c5ncc(F)c6ccccc56)c(C)cc4c32)C[C@H]1CC#N
≤ 50 nM: all assays above

Cc1cccc(-c2c(C)cc3c(nc(N4CC(C)(N(C)C)C4)c4nnn([C@H]5CCN(C(=O)/C=C/CF)[C@H](CC#N)C5)c43)c2F)c1Cl
≤ 50 nM: all assays above

COC/C=C/C(=O)N1CC[C@H](n2nnc3c(O[C@@H](C)[C@@H]4CCCN4C)nc4c(F)c(-c5ccc(F)cc5)c(C)cc4c32)C[C@H]1CC#N
≤ 50 nM: all assays above
